Measured values reported in patent US6843979B2, “4-haloethenylphenyl tropane:serotonin transporter imaging agents” (Emory University, priority 1999, dated 2005).
Several values for one entry are separate records, joined by “and”; a condition that tells them apart may be missing. Identical values can stand only once. Like-named read-outs stand apart in the source and are kept apart here.

Key:
human SERT = target: T1, human SERT (Homo sapiens, UniProt P31645); assay: Binding site competition, cells stably transfected with human SERT, [3H]citalopram; conditions: for Ki / SERT Ki: [3H]citalopram, transfected cell lines; for DAT/SERT selectivity / NET/SERT selectivity: ratio of Ki
T1 construct: expressed in transfected cells
T1 sequence (P31645 whole entry): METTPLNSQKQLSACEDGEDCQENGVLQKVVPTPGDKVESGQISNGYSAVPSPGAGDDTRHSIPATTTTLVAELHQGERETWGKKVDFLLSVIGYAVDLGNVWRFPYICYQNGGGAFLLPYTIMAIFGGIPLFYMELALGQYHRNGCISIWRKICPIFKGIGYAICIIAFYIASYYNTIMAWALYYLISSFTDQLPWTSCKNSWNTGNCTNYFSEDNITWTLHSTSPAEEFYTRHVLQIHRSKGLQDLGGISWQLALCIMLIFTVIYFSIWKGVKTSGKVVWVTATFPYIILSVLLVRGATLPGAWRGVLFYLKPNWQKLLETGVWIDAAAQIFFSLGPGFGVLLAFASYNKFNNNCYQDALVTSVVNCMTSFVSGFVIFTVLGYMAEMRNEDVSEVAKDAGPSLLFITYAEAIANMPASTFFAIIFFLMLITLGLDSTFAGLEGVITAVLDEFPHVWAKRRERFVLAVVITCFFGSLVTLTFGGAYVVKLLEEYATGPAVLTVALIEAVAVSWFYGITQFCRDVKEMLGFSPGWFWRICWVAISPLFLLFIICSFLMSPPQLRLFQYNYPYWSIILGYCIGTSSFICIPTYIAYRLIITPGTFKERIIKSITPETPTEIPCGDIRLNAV

SERT = conditions: cited from earlier work
human NET = target: T2, human NET (Homo sapiens, UniProt P23975); assay: Binding site competition, cells stably transfected with human NET, [3H]nisoxetine; conditions: transfected cell lines
T2 construct: expressed in transfected cells
T2 sequence (P23975 whole entry): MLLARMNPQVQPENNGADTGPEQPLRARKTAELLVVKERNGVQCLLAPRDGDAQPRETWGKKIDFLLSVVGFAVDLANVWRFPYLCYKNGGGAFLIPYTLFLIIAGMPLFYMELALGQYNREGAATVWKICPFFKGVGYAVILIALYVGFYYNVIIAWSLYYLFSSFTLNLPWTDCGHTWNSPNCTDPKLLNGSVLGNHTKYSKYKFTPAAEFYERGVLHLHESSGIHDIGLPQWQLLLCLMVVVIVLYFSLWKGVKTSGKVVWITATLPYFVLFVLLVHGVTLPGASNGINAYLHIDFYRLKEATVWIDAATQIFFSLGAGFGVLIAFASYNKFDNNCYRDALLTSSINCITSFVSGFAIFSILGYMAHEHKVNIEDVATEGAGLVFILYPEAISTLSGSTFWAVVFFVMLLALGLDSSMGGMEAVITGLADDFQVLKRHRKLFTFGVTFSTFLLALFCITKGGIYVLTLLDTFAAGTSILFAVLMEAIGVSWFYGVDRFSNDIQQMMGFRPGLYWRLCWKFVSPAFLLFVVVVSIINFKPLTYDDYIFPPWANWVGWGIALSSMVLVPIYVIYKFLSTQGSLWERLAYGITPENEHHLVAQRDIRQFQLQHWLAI

human DAT = target: T3, human DAT (Homo sapiens, UniProt Q01959); assay: Binding site competition, cells stably transfected with human DAT, [3H]WIN 35,428; conditions: [3H]WIN 35428, transfected cell lines
T3 construct: expressed in transfected cells
T3 sequence (Q01959 whole entry): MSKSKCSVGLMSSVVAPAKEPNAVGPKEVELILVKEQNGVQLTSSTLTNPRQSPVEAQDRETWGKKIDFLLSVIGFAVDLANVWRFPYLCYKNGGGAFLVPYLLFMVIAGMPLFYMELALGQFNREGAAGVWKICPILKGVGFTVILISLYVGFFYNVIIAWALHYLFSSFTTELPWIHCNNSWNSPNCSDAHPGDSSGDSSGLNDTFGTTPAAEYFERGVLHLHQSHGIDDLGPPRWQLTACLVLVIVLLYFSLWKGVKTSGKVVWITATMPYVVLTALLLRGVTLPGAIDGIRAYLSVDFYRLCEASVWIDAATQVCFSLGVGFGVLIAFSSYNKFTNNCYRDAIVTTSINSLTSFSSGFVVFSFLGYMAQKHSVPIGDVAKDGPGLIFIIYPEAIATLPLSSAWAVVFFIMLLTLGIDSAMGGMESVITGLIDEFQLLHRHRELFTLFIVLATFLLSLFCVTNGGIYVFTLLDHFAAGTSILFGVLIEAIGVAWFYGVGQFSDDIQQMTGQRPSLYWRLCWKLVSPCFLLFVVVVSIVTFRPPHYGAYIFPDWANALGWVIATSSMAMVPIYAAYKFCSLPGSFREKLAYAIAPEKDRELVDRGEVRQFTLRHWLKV

SMILES	Ki (human SERT)	Selectivity for the SERT over the DAT (SERT) [times]	IC50 (SERT; vs [3H]WIN 35428 (so in the source)) [nM]	Ki (human NET; read-out: NET Ki) [nM]	Ki (human DAT)	SERT Ki (human SERT)	DAT/SERT selectivity (human SERT)	NET/SERT selectivity (human SERT)	Ki (human NET; NET Ki)
COC(=O)[C@@H]1C2CCC(C[C@@H]1c1ccc(/C=C/I)cc1)N2 (some centres unmarked) [EINT]	1.15 nM	500	0.69	32	1.88 nM				
COC(=O)C1C2CCC(CC1c1ccc(CCF)c(Br)c1)N2 (stereo not drawn) [FEBrNT, 2β-carbomethoxy-3β-(4-(2-fluoroethyl)-3-bromophenyl)nortropane]	0.22 nM and 0.12 to 0.56 nM				23.2 nM and 23 nM	subnanomolar	100	573	126 nM
COC(=O)C1C2CCC(CC1c1ccc(CCF)c(Cl)c1)N2 (stereo not drawn) [FEClNT, 2β-carbomethoxy-3β-(4-(2-fluoroethyl)-3-chlorophenyl)nortropane]	0.56 nM and 0.12 to 0.56 nM				27 nM	subnanomolar	48	209	117 nM
COC(=O)C1C2CCC(CC1c1ccc(CCF)c(I)c1)N2 (stereo not drawn) [FEINT, 2β-carbomethoxy-3β-(4-(2-fluoroethyl)-3-iodophenyl)nortropane]	0.1 nM and 0.12 to 0.56 nM				42.4 nM and 42 nM	subnanomolar	424 and 283	649	64.9 nM and 65 nM
COC(=O)C1C2CCC(CC1c1ccc(CCCF)c(I)c1)N2 (centres unmarked) [FPINT]						subnanomolar			
COC(=O)[C@H]1[C@@H](c2ccc(C(C)=CF)cc2)C[C@@H]2CC[C@H]1N2 [IPPNT]	0.08 nM			11.8	2.93 nM	subnanomolar	37		
COC(=O)C1C2CCC(CC1c1ccc(/C=C\CF)cc1)N2 (stereo not drawn) [Ligand Z-3-FPNT, 2β-carbomethoxy-3β-(4′(Z-3-fluoropropenyl)phenyl)-nortropane]	0.1 nM				11.6 nM		116		
